Reference: ChEMBL document CHEMBL4387772, “Design, synthesis and biological evaluation of hypolipidemic compounds based on BRD4 inhibitor RVX-208” (Bioorg Med Chem Lett, 2019)

Key:
[1] = tested on: Rattus norvegicus; assay: Antihyperlipidemic activity in po dosed Sprague-Dawley rat assessed as decrease in triglyceride level administered twice daily for 1 week measured 2 hrs post-last dose by GPO-PAP analysis relative to control; type: functional; design: scale not given: the % may be the effect or the level left
[2] = tested on: Rattus norvegicus; assay: Antihyperlipidemic activity in po dosed Sprague-Dawley rat assessed as increase in HDL-C level administered twice daily for 1 week measured 2 hrs post-last dose by HPLC analysis relative to control; type: functional
[3] = tested on: Rattus norvegicus; assay: Antihyperlipidemic activity in Sprague-Dawley rat assessed as increase in HDL-C level at 30 mg/kg, po administered twice daily for 1 week measured 2 hrs post-last dose by HPLC analysis relative to control; type: functional
[4] = target: Bromodomain-containing protein 4 (Homo sapiens, UniProt O60885); assay: Inhibition of BRD4 bromodomain 2 (unknown origin) incubated for 30 mins by ELISA
[5] = tested on: Rattus norvegicus; assay: Antihyperlipidemic activity in Sprague-Dawley rat assessed as decrease in triglyceride level at 30 mg/kg, po administered twice daily for 1 week measured 2 hrs post-last dose by GPO-PAP analysis relative to control; type: functional; design: scale not given: the % may be the effect or the level left
[6] = tested on: HepG2; assay: Up regulation of ApoA1 mRNA expression in human HepG2 cells at 100 uM by RT-PCR analysis relative to control; type: functional

| SMILES | Activity [1] [%] | Activity [2] [%] | Activity [3] [%] | IC50 [4] [µM] | Activity [5] [%] | Activity [6] [%] |
| --- | --- | --- | --- | --- | --- | --- |
| Cc1ccc(C)c(OCCCC(C)(C)C(=O)O)c1 [GEMFIBROZIL] | 39.66 | 7.03 | – | – | – | – |
| COc1cc(OC)c2c(=O)[nH]c(-c3cc(OC)c(OC(=O)C(C)(C)Br)c(OC)c3)nc2c1 | – | – | 32.74 | 0.0209 | 41.63 | 44.82 |
| COc1cc(OC)c2c(=O)[nH]c(-c3cc(C)c(OCCO)c(C)c3)nc2c1 [APABETALONE] | 3.13 | 23.84 | – | – | – | 38.91 |
| COc1cc(OC)c2c(=O)[nH]c(-c3cc(C)c(OC(=O)C(C)(C)Oc4ccc(Cl)cc4)c(C)c3)nc2c1 | – | – | 22.5 | 0.0396 | 34.85 | 38.09 |
| COc1cc(OC)c2c(=O)[nH]c(-c3cc(OC)c(OC(=O)CC(=O)OC(C)(C)C(=O)O)c(OC)c3)nc2c1 | – | – | 21.58 | > 0.1 | 50.36 | 37.34 |
| CCOC(=O)C(C)(C)Oc1ccc(Cl)cc1 [CLOFIBRATE] | 41.35 | 5.92 | – | – | – | – |
| COc1cc(OC)c2c(=O)[nH]c(-c3cc(C)c(OC(=O)CC(=O)OC(C)(C)C(=O)O)c(C)c3)nc2c1 | – | – | 16.46 | > 0.1 | 48.59 | 21.67 |
| COc1cc(OC)c2c(=O)[nH]c(-c3ccc(C(=O)OCCO)cc3)nc2c1 | – | – | 16.51 | 0.071 | 11.94 | 25.3 |
| COc1cc(OC)c2c(=O)[nH]c(-c3cc(OC)c(OC(=O)C(C)(C)Oc4ccc(Cl)cc4)c(OC)c3)nc2c1 | – | – | 29.39 | 0.0097 | 37.34 | 42.65 |
| COc1cc(OC)c2c(=O)[nH]c(-c3cc(C)c(OC(=O)C(C)(C)Br)c(C)c3)nc2c1 | – | – | 19.33 | 0.0538 | 36.21 | 34.85 |
| COc1cc(OC)c2c(=O)[nH]c(-c3cc(OC)c(OCCO)c(OC)c3)nc2c1 | – | – | 20.61 | 0.0275 | 5.07 | 32.77 |
